Results from patent publication US4175125A, “Method for treating methicillin resistant staphylococcus aureus” (Eli Lilly and Company, priority 1978, dated 1979).
≈ marks a conversion by molar mass, not a printed value. Where two headings read alike, the source gives them in different places.

Assays:
[1] = test system: Staphylococcus aureus cultures; test: Agar dilution MIC, Example 13 compound vs methicillin resistant Staphylococcus aureus; type: cell-based
Source text: The table which follows gives the minimum inhibitory concentration (MIC) in micrograms of compound per milliliter of culture (μg/ml), in comparison with similar MIC values for the known antibiotics methicillin, cephalothin and cephaloridine against the same strains of bacteria.

[2] = test system: Staphylococcus aureus cultures; test: Modified Bauer-Kirby Disc Susceptibility Test (Example 11); type: cell-based; design: zone of inhibition: dose or concentration left out as unconfirmed; settings: for zone of inhibition: Staphylococcus aureus; for Change 37°-30°: 30 mg Disc
Description: This example exemplifies the antibiotic activity of 7-[2'-(3"-chloro-4"-fluorophenylthio)acetamido]cephalosporanic acid, a water soluble compound, described in Example 8, against various Staphylococcus aureus cultures, in a modified Bauer-Kirby Disc Susceptibility Test (Bauer, A. W., W. M. M. Kirby, J. C. Sherris, and M. Turck, 1966, Amer. J. Clin. Pathol. 45:493-496). In this test the cultures were incubated at both 37° C. or 30° C. […] 16, 1968, the heterogeneity of methicilllin-resistant S. aureus is manifested by incubation at 30° C.

CC(=O)OCC1=C(C(=O)O)N2C(=O)[C@@H](NC(=O)Cc3cccs3)[C@H]2SC1 [Cephalothin, cephalothin, reference compound]
MIC ([1]; culture 3055 (control), Trypticase Soy Agar with 4.5% NaCl added (5% NaCl)): 0.25 µg/mL (≈ 0.631 µM) | MIC ([1]; culture 3055 (control), Trypticase Soy Agar, 0.5% NaCl): 0.13 µg/mL (≈ 0.328 µM) | MIC ([1]; culture 3130, Trypticase Soy Agar with 4.5% NaCl added (5% NaCl)): 1 µg/mL (≈ 2.52 µM) | MIC ([1]; culture 3130, Trypticase Soy Agar, 0.5% NaCl): 0.5 µg/mL (≈ 1.26 µM) | MIC ([1]; culture 3131, Trypticase Soy Agar with 4.5% NaCl added (5% NaCl)): 1 µg/mL (≈ 2.52 µM) | MIC ([1]; culture 3131, Trypticase Soy Agar, 0.5% NaCl): 0.5 µg/mL (≈ 1.26 µM) | MIC ([1]; culture 3132, Trypticase Soy Agar with 4.5% NaCl added (5% NaCl)): 0.5 µg/mL (≈ 1.26 µM) | MIC ([1]; culture 3132, Trypticase Soy Agar, 0.5% NaCl): 0.5 µg/mL (≈ 1.26 µM) | MIC ([1]; culture 3133, Trypticase Soy Agar with 4.5% NaCl added (5% NaCl)): 0.5 µg/mL (≈ 1.26 µM) | MIC ([1]; culture 3133, Trypticase Soy Agar, 0.5% NaCl): 0.5 µg/mL (≈ 1.26 µM) | MIC ([1]; culture 3134, Trypticase Soy Agar with 4.5% NaCl added (5% NaCl)): 1 µg/mL (≈ 2.52 µM) | MIC ([1]; culture 3134, Trypticase Soy Agar, 0.5% NaCl): 2 µg/mL (≈ 5.04 µM) | MIC ([1]; culture 3135, Trypticase Soy Agar with 4.5% NaCl added (5% NaCl)): 1 µg/mL (≈ 2.52 µM) | MIC ([1]; culture 3135, Trypticase Soy Agar, 0.5% NaCl): 1 µg/mL (≈ 2.52 µM) | MIC ([1]; culture 3136, Trypticase Soy Agar with 4.5% NaCl added (5% NaCl)): 1 µg/mL (≈ 2.52 µM) | MIC ([1]; culture 3136, Trypticase Soy Agar, 0.5% NaCl): 0.5 µg/mL (≈ 1.26 µM) | MIC ([1]; culture 3137, Trypticase Soy Agar with 4.5% NaCl added (5% NaCl)): 1 µg/mL (≈ 2.52 µM) | MIC ([1]; culture 3137, Trypticase Soy Agar, 0.5% NaCl): 2 µg/mL (≈ 5.04 µM) | MIC ([1]; culture 3138, Trypticase Soy Agar with 4.5% NaCl added (5% NaCl)): 2 µg/mL (≈ 5.04 µM) | MIC ([1]; culture 3138, Trypticase Soy Agar, 0.5% NaCl): 1 µg/mL (≈ 2.52 µM) | MIC ([1]; culture 3139, Trypticase Soy Agar with 4.5% NaCl added (5% NaCl)): 0.25 µg/mL (≈ 0.631 µM) | MIC ([1]; culture 3139, Trypticase Soy Agar, 0.5% NaCl): 0.5 µg/mL (≈ 1.26 µM) | MIC ([1]; culture H232 (control), Trypticase Soy Agar with 4.5% NaCl added (5% NaCl)): 0.25 µg/mL (≈ 0.631 µM) | MIC ([1]; culture H232 (control), Trypticase Soy Agar, 0.5% NaCl): 2.5 µg/mL (≈ 6.31 µM) | MIC ([1]; culture Havarmak 1136501, Trypticase Soy Agar with 4.5% NaCl added (5% NaCl)): 1 µg/mL (≈ 2.52 µM) | MIC ([1]; culture Havarmak 1136501, Trypticase Soy Agar, 0.5% NaCl): 1 µg/mL (≈ 2.52 µM) | MIC ([1]; culture S 61, Trypticase Soy Agar with 4.5% NaCl added (5% NaCl)): 1 µg/mL (≈ 2.52 µM) | MIC ([1]; culture S 61, Trypticase Soy Agar, 0.5% NaCl): 1 µg/mL (≈ 2.52 µM) | MIC ([1]; culture Seattle 966, Trypticase Soy Agar with 4.5% NaCl added (5% NaCl)): 0.25 µg/mL (≈ 0.631 µM) | MIC ([1]; culture Seattle 966, Trypticase Soy Agar, 0.5% NaCl): 0.5 µg/mL (≈ 1.26 µM) | zone of inhibition ([2]; culture 3055 (penicillin sensitive), 30°, read-out: disc susceptibility (zone) at 30°): > 35 mm | zone of inhibition ([2]; culture 3055 (penicillin sensitive), 37°, read-out: disc susceptibility (zone) at 37°): > 35 mm | zone of inhibition ([2]; culture 3074 (methicillin sensitive, penicillinase producing), 30°, read-out: disc susceptibility (zone) at 30°): 32.1 mm | zone of inhibition ([2]; culture 3074 (methicillin sensitive, penicillinase producing), 37°, read-out: disc susceptibility (zone) at 37°): 31.8 mm | zone of inhibition ([2]; culture 3125 (methicillin resistant), 30°, read-out: disc susceptibility (zone) at 30°): 33.8 mm | zone of inhibition ([2]; culture 3125 (methicillin resistant), 37°, read-out: disc susceptibility (zone) at 37°): 33.4 mm | zone of inhibition ([2]; culture 3130 (methicillin resistant), 30°, read-out: disc susceptibility (zone) at 30°): 20.2 mm | zone of inhibition ([2]; culture 3130 (methicillin resistant), 37°, read-out: disc susceptibility (zone) at 37°): 32.8 mm | zone of inhibition ([2]; culture 3131 (methicillin resistant), 30°, read-out: disc susceptibility (zone) at 30°): 16.6 mm | zone of inhibition ([2]; culture 3131 (methicillin resistant), 37°, read-out: disc susceptibility (zone) at 37°): 29.6 mm | zone of inhibition ([2]; culture 3132 (methicillin resistant), 30°, read-out: disc susceptibility (zone) at 30°): 17.6 mm | zone of inhibition ([2]; culture 3132 (methicillin resistant), 37°, read-out: disc susceptibility (zone) at 37°): 28.6 mm | zone of inhibition ([2]; culture 3133 (methicillin resistant), 30°, read-out: disc susceptibility (zone) at 30°): 12.8 mm | zone of inhibition ([2]; culture 3133 (methicillin resistant), 37°, read-out: disc susceptibility (zone) at 37°): 28.8 mm | zone of inhibition ([2]; culture 3134 (methicillin resistant), 30°, read-out: disc susceptibility (zone) at 30°): 12.1 mm | zone of inhibition ([2]; culture 3134 (methicillin resistant), 37°, read-out: disc susceptibility (zone) at 37°): 27.8 mm | zone of inhibition ([2]; culture 3135 (methicillin resistant), 30°, read-out: disc susceptibility (zone) at 30°): 11.8 mm | zone of inhibition ([2]; culture 3135 (methicillin resistant), 37°, read-out: disc susceptibility (zone) at 37°): 28 mm | zone of inhibition ([2]; culture 3136 (methicillin resistant), 30°, read-out: disc susceptibility (zone) at 30°): 20.8 mm | zone of inhibition ([2]; culture 3136 (methicillin resistant), 37°, read-out: disc susceptibility (zone) at 37°): 35.6 mm | zone of inhibition ([2]; culture 3137 (methicillin resistant), 30°, read-out: disc susceptibility (zone) at 30°): 0 mm | zone of inhibition ([2]; culture 3137 (methicillin resistant), 37°, read-out: disc susceptibility (zone) at 37°): 17.8 mm | zone of inhibition ([2]; culture 3138 (methicillin resistant), 30°, read-out: disc susceptibility (zone) at 30°): 11.3 mm | zone of inhibition ([2]; culture 3138 (methicillin resistant), 37°, read-out: disc susceptibility (zone) at 37°): 26.2 mm | zone of inhibition ([2]; culture 3139 (methicillin resistant), 30°, read-out: disc susceptibility (zone) at 30°): 27 mm | zone of inhibition ([2]; culture 3139 (methicillin resistant), 37°, read-out: disc susceptibility (zone) at 37°): 32 mm | zone of inhibition ([2]; culture 3140 (methicillin resistant), 30°, read-out: disc susceptibility (zone) at 30°): 10.4 mm | zone of inhibition ([2]; culture 3140 (methicillin resistant), 37°, read-out: disc susceptibility (zone) at 37°): 29.7 mm | zone of inhibition ([2]; culture H232 (methicillin sensitive, penicillinase producing), 30°, read-out: disc susceptibility (zone) at 30°): 33.2 mm | zone of inhibition ([2]; culture H232 (methicillin sensitive, penicillinase producing), 37°, read-out: disc susceptibility (zone) at 37°): 33.4 mm | Change 37°-30° ([2]; culture 3074): +0.3 mm | Change 37°-30° ([2]; culture 3130): -12.6 mm | Change 37°-30° ([2]; culture 3131): -13.0 mm | Change 37°-30° ([2]; culture 3132): -11.0 mm | Change 37°-30° ([2]; culture 3133): -16.0 mm | Change 37°-30° ([2]; culture 3134): -15.7 mm | Change 37°-30° ([2]; culture 3135): -16.2 mm | Change 37°-30° ([2]; culture 3136): -14.8 mm | Change 37°-30° ([2]; culture 3137): > 17.8 mm | Change 37°-30° ([2]; culture 3138): -14.9 mm | Change 37°-30° ([2]; culture 3139): -5.0 mm | Change 37°-30° ([2]; culture 3140): -13.3 mm | Change 37°-30° ([2]; culture H232): -0.2 mm
